{"source": "ChEMBL document CHEMBL4011644", "about": "“3-Hydroxy-N'-arylidenepropanehydrazonamides with Halo-Substituted Phenanthrene Scaffolds Cure P. berghei Infected Mice When Administered Perorally” (J Med Chem, 2017)", "key": {"HepG2": {"system": "HepG2", "test": "Cytotoxicity against human HepG2 cells by CellTiterGlo assay", "format": "cell-based"}, "Plasmodium falciparum [1]": {"system": "Plasmodium falciparum", "test": "Antiplasmodial activity against chloroquine-sensitive asexual blood stages of Plasmodium falciparum 3D7 after 72 hrs by HRP2-based ELISA", "format": "functional", "conditions": "3D7, 72 h"}, "Plasmodium berghei [2]": {"system": "Plasmodium berghei", "test": "Antiplasmodial activity against Plasmodium berghei infected in NMRI mouse assessed as mean survival time at 30 mg/kg, po administered at 4, 24, 48, 72 hrs post infection by Peter's test (reference value: 6 to 7 day)", "format": "functional"}, "Plasmodium falciparum [3]": {"system": "Plasmodium falciparum", "test": "Gametocytocidal activity against transgenic GFP-fused Plasmodium falciparum NF54 early stage gametocytes after 72 hrs by Mitotracker Red CMH2XRos staining based confocal microscopic method", "format": "functional", "conditions": "NF54, 72 h"}, "Plasmodium berghei [4]": {"system": "Plasmodium berghei", "test": "Antiplasmodial activity against Plasmodium berghei infected in NMRI mouse assessed as parasite-free mouse at 30 mg/kg, po administered at 4, 24, 48, 72 hrs post infection measured on day 30 by Peter's test", "format": "functional, organism-based"}, "Plasmodium berghei [5]": {"system": "Plasmodium berghei", "test": "Antiplasmodial activity against Plasmodium berghei infected in NMRI mouse assessed as reduction in parasitemia at 30 mg/kg, po administered at 4, 24, 48, 72 hrs post infection measured on day 4 by Peter's test relative to control", "format": "functional", "design": "scale not given: the % may be the effect or the level left"}, "Plasmodium falciparum [6]": {"system": "Plasmodium falciparum", "test": "Effect on male gamete formation in transgenic GFP-fused Plasmodium falciparum NF54 mature stage-5 gametocytes at 1 uM after 72 hrs under reduced oxygen tension by Mitotracker Red CMH2XRos staining based confocal microscopic method", "format": "functional"}, "Plasmodium berghei [7]": {"system": "Plasmodium berghei", "test": "[…] activity against GFP-fused Plasmodium berghei liver stage parasites infected in human HepG2-A16-CD81-EGFP cells after 48 hrs by luciferase reporter gene assay", "format": "functional"}, "Plasmodium berghei [8]": {"system": "Plasmodium berghei", "test": "Antiplasmodial activity against Plasmodium berghei infected in NMRI mouse assessed as mean survival time at 50 mg/kg, po administered at 4, 24, 48, 72 hrs post infection by Peter's test (reference value: 6 to 7 day)", "format": "functional"}, "[9]": {"test": "Chemical stability of compound in tween 20/ethanol/phosphate buffer at 1 mg/ml at pH 7.5 assessed as compound remaining after 6 hrs by HPLC analysis", "format": "physicochemical", "conditions": "read-out: Stability"}, "Plasmodium berghei [10]": {"system": "Plasmodium berghei", "test": "Antiplasmodial activity against Plasmodium berghei infected in NMRI mouse assessed as reduction in parasitemia at 50 mg/kg, po administered at 4, 24, 48, 72 hrs post infection measured on day 4 post infection by Peter's test relative to control", "format": "functional", "design": "scale not given: the % may be the effect or the level left"}, "Plasmodium berghei [11]": {"system": "Plasmodium berghei", "test": "Antiplasmodial activity against Plasmodium berghei infected in NMRI mouse assessed as reduction in parasitemia at 10 mg/kg, po administered at 4, 24, 48, 72 hrs post infection measured on day 4 by Peter's test relative to control", "format": "functional", "design": "scale not given: the % may be the effect or the level left"}, "Plasmodium berghei [12]": {"system": "Plasmodium berghei", "test": "Antiplasmodial activity against Plasmodium berghei infected in NMRI mouse assessed as mean survival time at 10 mg/kg, po administered at 4, 24, 48, 72 hrs post infection measured on day 4 by Peter's test (reference value: 6 to 7 day)", "format": "functional"}, "Plasmodium falciparum [13]": {"system": "Plasmodium falciparum", "test": "Antiplasmodial activity against multidrug-resistant asexual blood stages of Plasmodium falciparum Dd2 after 72 hrs by HRP2-based ELISA", "format": "functional", "conditions": "Dd2, 72 h"}, "[14]": {"test": "Solubility of compound in phosphate buffer at pH 2.5 after 1 hr by HPLC analysis", "format": "physicochemical", "conditions": "pH 2.5, 1 h"}, "[15]": {"test": "Solubility of compound in phosphate buffer at pH 7.5 after 1 hr by HPLC analysis", "format": "physicochemical", "conditions": "pH 7.5, 1 h"}, "Plasmodium berghei [16]": {"system": "Plasmodium berghei", "test": "Antiplasmodial activity against Plasmodium berghei infected in NMRI mouse assessed as parasite free mouse at 3 mg/kg, po administered at 4, 24, 48, 72 hrs post infection measured on day 4 by Peter's test", "format": "functional, organism-based"}, "Plasmodium falciparum [17]": {"system": "Plasmodium falciparum", "test": "Gametocytocidal activity against transgenic GFP-fused Plasmodium falciparum NF54 […] stage gametocytes after 72 hrs by Mitotracker Red CMH2XRos staining based confocal microscopic method", "format": "functional", "conditions": "NF54, 72 h"}, "[18]": {"test": "Drug degradation in Tween 20/ethanol/phosphate buffer at 1 mg/ml at pH 7.5 after 24 hrs by HPLC analysis"}, "Mus musculus": {"system": "Mus musculus", "test": "Toxicity in NMRI mouse infected with Plasmodium berghei assessed as overt toxicity at 50 mg/kg, ip administered at 4, 24, 48, 72 hrs post infection", "format": "organism-based", "conditions": "in vivo"}, "Plasmodium berghei [19]": {"system": "Plasmodium berghei", "test": "Antiplasmodial activity against Plasmodium berghei infected in NMRI mouse assessed as reduction in parasitemia at 3 mg/kg, po administered at 4, 24, 48, 72 hrs post infection measured on day 4 by Peter's test relative to control", "format": "functional", "design": "scale not given: the % may be the effect or the level left"}, "Plasmodium falciparum [20]": {"system": "Plasmodium falciparum", "test": "Effect on female gamete formation in transgenic GFP-fused Plasmodium falciparum NF54 mature stage-5 gametocytes at 1 uM after 72 hrs under reduced oxygen tension by Mitotracker Red CMH2XRos staining based confocal microscopic method", "format": "functional"}, "Plasmodium berghei [21]": {"system": "Plasmodium berghei", "test": "Antiplasmodial activity against Plasmodium berghei infected in NMRI mouse assessed as mean survival time at 3 mg/kg, po administered at 4, 24, 48, 72 hrs post infection measured on day 4 by Peter's test (reference value: 6 to 7 day)", "format": "functional"}}, "note": "Calls of active or inactive are those of the source. The calls are words filed in the database; no cut-off is given here.", "data": [{"smiles": "N/C(CC(O)c1cc2c(F)cc(F)cc2c2cc(C(F)(F)F)ccc12)=N\\N=C\\c1ccc(F)cc1", "note": "(stereo not drawn)", "values": [{"measurement": "IC50", "setting": "HepG2", "value": 27700, "unit": "nM"}, {"measurement": "IC50", "setting": "Plasmodium falciparum [1]", "value": 2.3, "unit": "nM"}, {"measurement": "MST", "setting": "Plasmodium berghei [2]", "value": 25.7, "unit": "days"}, {"measurement": "IC50", "setting": "Plasmodium falciparum [3]", "value": 200, "unit": "nM"}, {"measurement": "Activity", "setting": "Plasmodium berghei [4]", "value": "inactive"}, {"measurement": "Activity", "setting": "Plasmodium berghei [5]", "value": 99.4, "unit": "%"}, {"measurement": "Activity", "setting": "Plasmodium falciparum [6]", "value": "inactive"}, {"measurement": "IC50", "setting": "Plasmodium berghei [7]", "value": 6900, "unit": "nM"}, {"measurement": "MST", "setting": "Plasmodium berghei [8]", "value": 22, "unit": "days"}, {"measurement": "remaining at 6 h, 1 mg/ml", "setting": "[9]", "value": "> 95", "unit": "%"}, {"measurement": "Activity", "setting": "Plasmodium berghei [10]", "value": 99.9, "unit": "%"}, {"measurement": "Activity", "setting": "Plasmodium berghei [11]", "value": 99.5, "unit": "%"}, {"measurement": "MST", "setting": "Plasmodium berghei [12]", "value": 24.7, "unit": "days"}, {"measurement": "IC50", "setting": "Plasmodium falciparum [13]", "value": 2.9, "unit": "nM"}, {"measurement": "solubility", "setting": "[14]", "value": "Insoluble"}, {"measurement": "solubility", "setting": "[15]", "value": "Insoluble"}, {"measurement": "Activity", "setting": "Plasmodium berghei [16]", "value": "inactive"}, {"measurement": "IC50", "setting": "Plasmodium falciparum [17]", "value": 66, "unit": "nM"}, {"measurement": "Drug degradation", "setting": "[18]", "value": 31, "unit": "%"}, {"measurement": "Activity", "setting": "Mus musculus", "value": "Non-Toxic"}, {"measurement": "Activity", "setting": "Plasmodium berghei [19]", "value": 78, "unit": "%"}, {"measurement": "Activity", "setting": "Plasmodium falciparum [20]", "value": "inactive"}, {"measurement": "MST", "setting": "Plasmodium berghei [21]", "value": 7, "unit": "days"}]}]}
